Legend:
CDK6 = CDK6 (Homo sapiens, UniProt Q00534); test: radiometric kinase assay; type: biochemical
CDK4 = CDK4 (Homo sapiens, UniProt P11802); test: radiometric kinase assay; type: biochemical
CDK4, sequence (P11802 2-303): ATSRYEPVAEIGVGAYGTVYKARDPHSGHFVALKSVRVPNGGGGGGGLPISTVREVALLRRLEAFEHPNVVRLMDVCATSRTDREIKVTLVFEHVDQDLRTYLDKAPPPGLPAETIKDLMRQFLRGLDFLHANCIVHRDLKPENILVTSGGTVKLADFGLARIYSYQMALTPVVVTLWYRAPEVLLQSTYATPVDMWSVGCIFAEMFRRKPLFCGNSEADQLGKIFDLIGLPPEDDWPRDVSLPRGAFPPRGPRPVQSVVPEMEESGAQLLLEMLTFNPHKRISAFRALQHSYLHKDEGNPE

CDK6, sequence (Q00534 whole entry): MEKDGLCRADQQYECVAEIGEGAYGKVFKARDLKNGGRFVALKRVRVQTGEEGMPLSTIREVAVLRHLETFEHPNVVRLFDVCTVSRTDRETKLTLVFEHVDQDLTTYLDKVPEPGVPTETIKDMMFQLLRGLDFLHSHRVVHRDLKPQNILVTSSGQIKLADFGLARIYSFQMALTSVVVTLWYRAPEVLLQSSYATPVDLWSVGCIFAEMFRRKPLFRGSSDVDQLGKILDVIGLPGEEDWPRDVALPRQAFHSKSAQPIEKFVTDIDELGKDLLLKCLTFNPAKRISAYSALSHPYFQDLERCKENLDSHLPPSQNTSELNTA

With `O=C(O)CN(CC(=O)O)Cc1cc2c(cc1O)Oc1cc(O)c(CN(CC(=O)O)CC(=O)O)cc1C21OC(=O)c2ccccc21` [calcein, 4′5′-bis(N, N-bis(carboxymethyl)aminomethyl) fluorescein] the IC50 (CDK6) was 75 µM and the “radiometric kinase assay (GST-Rb substrate) on CDK4 immunoprecipitated from HCT1” value (CDK4) was ~ 75 μM.
